In ChEMBL document CHEMBL3351799, “Bioavailable pyrrolo-benzo-1,4-diazines as Na(v)1.7 sodium channel blockers for the treatment of pain” (Bioorg Med Chem Lett, 2014):

Legend:
in vivo [1] = conditions: Sprague-Dawley, rat, plasma
in vivo [2] = conditions: Sprague-Dawley, rat, brain/plasma
[3] = Drug level in Sprague-Dawley rat brain after 6 hrs; format: ADME, tissue-based; conditions: read-out: Drug uptake

| SMILES | AUC at 6 h (in vivo [1]) | Kp at 6 h (in vivo [2]) | concentration at 6 h [3] |
| --- | --- | --- | --- |
| COc1ccc2c(c1)NC1(CCN(C(=O)c3ccc(OC)c(N(C)C)c3)CC1)c1cccn1-2 | 20.3 µM·h | 0.2 | 257 ng/g |
| COc1ccc2c(c1)NC1(CCN(C(=O)c3cccc4ncccc34)CC1)c1cccn1-2 | 16.2 µM·h | – | – |
